We go through 7 compounds from patent US8329644B2, “Lantibiotic-based compounds having antimicrobial activity” (Novacta Biosystems Limited, priority 2007, dated 2012).

Values after ≈ are worked out from the molar mass of the structure shown. Where two headings read alike, the source gives them in different places.

One data set concerns Clostridium difficile. Kind of data set: MIC, Clostridium difficile in Wilkins-Chalgren Anaerobe Agar. In kind it is cell-based. More on the design: key: MIC in μg/ml (two-fold dilutions, 0.06–64). Here is the method: (§1) Susceptibility testing for all aerobic organisms with the exception of Streptococcus pneumoniae was performed by two-fold serial antibiotic dilutions in Mueller-Hinton Broth supplemented with 50 μg/ml Ca^2+ unless otherwise noted. Susceptibility testing for S. pneumoniae was performed by two-fold serial antibiotic dilutions in Brain-Heart-Infusion Broth supplemented with 50 μg/ml Ca^2+ unless otherwise noted. Actively growing broth cultures were diluted to contain […] by adjusting to an OD600 of 0.2-0.3. They were then diluted a further 1:100 in fresh sterile broth. The assays were performed in duplicate in sterile 96-well microtitre plates in a total volume of 200 μl (160 μl broth, 20 μl antimicrobial agent, 20 μl inoculum) in a concentration range from 64 μg/ml to 0.06 μg/ml. […] Clinical isolates of Clostridium difficile were tested in Wilkins-Chalgren Anaerobe Agar under anaerobic conditions. In all cases, vancomycin was used as a reference antibiotic

In another data set the test system is Micrococcus luteus. Kind of data set: In vitro antibacterial activity against Micrococcus luteus during SIF incubation. It is filed as cell-based. Conditions: after incubation in SIF. Here is the method:
(§2) Nisin, mersacidin, compound I and compound III were tested for their susceptibility towards enzymatic digestion in the stomach. Nisin, mersacidin and compound III were tested for their susceptibility towards enzymatic digestion in the intestine. The SGF and SIF were based on the standard USP solutions for simulated gastric and simulated intestinal fluids and their activity confirmed against Bovine Serum Albumin (Hilger et al, Clin. Exp. Immunol. 2001, 123, 387-94). The compounds were incubated in SGF or SIF at 37° C. and their concentrations quantified by analytical HPLC (UV detection at 210 nm). The potential degradation of each compound was also monitored qualitatively by measuring in vitro antibacterial activity against Micrococcus luteus.

The nature of data set [1]: Stability in simulated gastric fluid (SGF). It is filed as in vitro ADME. Conditions: 37° C., analytical HPLC. Here is the method: as §2
The conditions of data set [2]: rat, 100 mg/kg oral.
Description: Male Sprague-Dawley rats were dosed with compound I at 100 mg/kg via the oral route. Faeces and urine were collected over a 48 h period in two batches (at 24 h and 48 h post dose). Blood samples were taken at various time points for the first 24 h.
Another data set is described as follows: Water solubility. Conditions: aqueous. It is filed as physicochemical. The text has this:
Typically, compounds of the invention were isolated using phosphate buffers.

The test system of the next data set is E. faecium. Nature of the data set: MIC susceptibility testing, E. faecium. Particulars: Enterococcus faecium. In kind it is cell-based. Here is the method: as §1
The next data set concerns S. pneumoniae. Nature of the data set: MIC susceptibility testing, S. pneumoniae (Brain-Heart-Infusion Broth). Conditions: Streptococcus pneumoniae; S. pneumoniae R6; Table 2; read-out: MIC. In kind it is cell-based, Streptococcus pneumoniae. The method, then: as §1
Data set [3] relates to Bifidobacterium adolescentis. Nature of the data set: MIC against intestinal flora organisms, Bifidobacterium adolescentis. In kind it is cell-based. Conditions: NCTC11814; Bifidobacterium adolescentis NCTC 11814; Table 5; read-out: Minimal Inhibitory Concentration (MIC).
Data set [4] relates to Bacteroides thetaiotaomicron. Nature of the data set: MIC against intestinal flora organisms, Bacteroides thetaiotaomicron. It is filed as cell-based. Conditions: NCTC10582; Bacteroides thetaiotaomicron NCTC 10582; Table 5; read-out: Minimal Inhibitory Concentration (MIC).
The subject of a further data set is S. aureus. Nature of the data set: MIC susceptibility testing, S. aureus. It is filed as cell-based, Staphyloccus aureus. Conditions: Staphylococcus aureus, Table 2, read-out: MIC. The method, then: as §1
A further data set relates to S. epidermidis. Nature of the data set: MIC susceptibility testing, S. epidermidis. In kind it is cell-based, Staphylococcus epidermidis. Particulars: Staphylococcus epidermidis. Here is the method:
as §1

In a further data set the test system is E. faecalis. Kind of data set: MIC susceptibility testing, E. faecalis. Conditions: Enterococcus faecalis; E. faecalis 29212; Table 2; read-out: MIC. It is filed as cell-based. The method, then: as §1
For another data set, the system named is E. coli. Nature of the data set: MIC against intestinal flora organisms, E. coli. Conditions: for MIC: Escherichia coli, read-out: Minimal Inhibitory Concentration (MIC). It is filed as cell-based. The method, then:
as §1

The subject of the next data set is Bacteroides fragilis. Kind of data set: MIC against intestinal flora organisms, Bacteroides fragilis. It is filed as cell-based. Conditions: NCTC9343; Bacteroides fragilis NCTC 9343; Table 5; read-out: Minimal Inhibitory Concentration (MIC).
The test system of another data set is Bifidobacterium longum. Kind of data set: MIC against intestinal flora organisms, Bifidobacterium longum. Conditions: NCTC11818; Bifidobacterium longum NCTC 11818; Table 5; read-out: Minimal Inhibitory Concentration (MIC). In kind it is cell-based.
The next data set concerns M. luteus. Kind of data set: MIC susceptibility testing, M. luteus. It is filed as cell-based. Particulars: Micrococcus luteus; M. luteus 4698; Table 2; read-out: MIC. Here is the method:
as §1

In data set [5] the test system is C. difficile strain VPI 10463. Kind of data set: Hamster model of C. difficile associated cecitis, first experiment (FIG. 1). It is filed as in vivo. Conditions: C. difficile VPI 10463, three times daily at 50 mg/kg/day, 5-day dosing period, groups of 6. Here is the method:
In the first experiment (FIG. 1) groups of 6 animals were dosed with approximately 10^7 cells of C. difficile strain VPI 10463 and 24 hours later with a subcutaneous dose of 10 mg/kg clindamycin phosphate.
The procedure as described induced a C. difficile infection in the test animals, from which all animals treated only with vehicle died within 3 days.

By solubility is commonly meant the dissolved amount per volume that the medium holds.

For “Deoxy-actagardine B (L-serine methyl ester) monocarboxamide [Compound XXI]”, the MIC in the data set on Clostridium difficile (C. difficile 027C, Table 4A) came to 2; in the data set with Clostridium difficile (C. difficile 630, Table 4A) it was 4; in the data set with Clostridium difficile (C. difficile 19126, Table 4A), 4; against Clostridium difficile (C. difficile 37779, Table 4A), 4.

Consider mersacidin, for which the “in vitro activity against M. luteus during the course of the experiment” value in the data set with Micrococcus luteus is recorded as “remained unaltered”.

As to “Deoxy-Actagardine B N-[2-hydroxy-2-phenylethylamine]monocarboxamide [Compound XX]”, the MIC is on record as 2 in the data set with Clostridium difficile (C. difficile 027C, Table 4A); 2 against Clostridium difficile (C. difficile 630, Table 4A); 2 against Clostridium difficile (C. difficile 19126, Table 4A); 2 in the data set on Clostridium difficile (C. difficile 37779, Table 4A).

For `CC[C@H](C)[C@@H]1NC(=O)[C@@H]2NC(=O)[C@H](CC(C)C)NC(=O)[C@H](NC(=O)[C@@H]3CSC[C@@H](N)C(=O)N[C@@H](CO)C(=O)NCC(=O)N[C@@H](Cc4c[nH]c5ccccc45)C(=O)N[C@@H](C(C)C)C(=O)N3)[C@H](C)SC[C@H](NC(=O)[C@H](CCC(=O)O)NC1=O)C(=O)NCC(=O)N[C@H]1C(=O)N[C@@H](CC(C)C)C(=O)N[C@@H](C(C)C)C(=O)N[C@@H](CS[C@H]2C)C(=O)N[C@@H](C)C(=O)N[C@H](C(=O)NCCO)CS[C@H]1C` [Compound I, Deoxy-Actagardine B N-[2-ethanolamine]monocarboxamide], the “degradation in Simulated Gastric Fluid” value in [1] is listed as “did not show appreciable degradation”. Also, in [2], the “material recovered from plasma or urine” value is “No material was recovered”. The same compound came in with a solubility in the data set “Water solubility” of 15 mg/mL (≈ 7820 µM).

With “Deoxy-actagardine B (2-hydroxypiperazine) monocarboxamide [Compound XXIII]”, the MIC in the data set with Clostridium difficile (C. difficile 027C, Table 4A) is on record as 4; against Clostridium difficile (C. difficile 630, Table 4A), 2; in the data set on Clostridium difficile (C. difficile 19126, Table 4A) it was 4; in the data set on Clostridium difficile (C. difficile 37779, Table 4A) it was 4.

Take “Deoxyactagardine B (N-(2-hydroxyethyl)ethylenediamine) monocarboxamide [Compound XXII]”: the MIC in the data set on Clostridium difficile (C. difficile 027C, Table 4A) is 2; in the data set on Clostridium difficile (C. difficile 630, Table 4A) it was 2; against Clostridium difficile (C. difficile 19126, Table 4A), 2; in the data set with Clostridium difficile (C. difficile 37779, Table 4A), 2.

As to `CN[C@H](CC(C)C)C(=O)N[C@H]1C(=O)N[C@@H](CC(N)=O)C(=O)N[C@H]2C(=O)N[C@H]3C(=O)N[C@H](C(=O)N[C@H](C(=O)O)c4cc(O)cc(O)c4-c4cc3ccc4O)[C@H](O)c3ccc(c(Cl)c3)Oc3cc2cc(c3O[C@@H]2O[C@H](CO)[C@@H](O)[C@H](O)[C@H]2O[C@H]2C[C@](C)(N)[C@H](O)[C@H](C)O2)Oc2ccc(cc2Cl)[C@H]1O` [Vancomycin, vancomycin, reference compound], the MIC with E. faecium (ATCC19579, E. faecium (VSE) ATCC 19579, Table 5, read-out: Minimal Inhibitory Concentration (MIC)) was 0.5 µg/mL (≈ 0.345 µM); with E. faecium (ATCC29212, read-out: Minimal Inhibitory Concentration (MIC), E. faecium (VSE) ATCC 29212, Table 5), 4 µg/mL (≈ 2.76 µM); with E. faecium (E. faecium 19579, Table 2, read-out: MIC) it was 4 µg/mL (≈ 2.76 µM); in the data set with E. faecium (E. faecium 7131121, Table 2, read-out: MIC) it was over 64 µg/mL; with E. faecium (VRE, E. faecium (VRE) (clinical isolate), Table 5, first isolate, read-out: Minimal Inhibitory Concentration (MIC)), over 64 µg/mL; with E. faecium (VRE, E. faecium (VRE) (clinical isolate), Table 5, second isolate, read-out: Minimal Inhibitory Concentration (MIC)) it was over 64 µg/mL. Also, the MIC was over 64 µg/mL in the data set on S. pneumoniae; 1 µg/mL (≈ 0.69 µM) in data set [3]; 0.5 µg/mL (≈ 0.345 µM) in the data set with Clostridium difficile (Clostridioides difficile, C. difficile 027C, Table 4, read-out: MIC); 0.5 µg/mL (≈ 0.345 µM) in the data set on Clostridium difficile (Clostridioides difficile, C. difficile 027SM, Table 4, read-out: MIC); 1 µg/mL (≈ 0.69 µM) with Clostridium difficile (Clostridioides difficile, C. difficile 19126, Table 4, read-out: MIC); 1 µg/mL (≈ 0.69 µM) with Clostridium difficile (Clostridioides difficile, C. difficile 37779, Table 4, read-out: MIC). The MIC in the data set on Clostridium difficile (Clostridioides difficile, C. difficile B32, Table 4, read-out: MIC) stood at 1 µg/mL (≈ 0.69 µM); in the data set with Clostridium difficile (Clostridioides difficile, C. difficile E4, Table 4, read-out: MIC), 1 µg/mL (≈ 0.69 µM); with Clostridium difficile (Clostridioides difficile, C. difficile E16, Table 4, read-out: MIC), 1 µg/mL (≈ 0.69 µM); in the data set on Clostridium difficile (Clostridioides difficile, C. difficile E101, Table 4, read-out: MIC), 1 µg/mL (≈ 0.69 µM); in the data set with Clostridium difficile (Clostridioides difficile, C. difficile P24, Table 4, read-out: MIC) it was 1 µg/mL (≈ 0.69 µM); in the data set on Clostridium difficile (Clostridioides difficile, C. difficile P49, Table 4, read-out: MIC), 0.5 µg/mL (≈ 0.345 µM). The MIC was 1 µg/mL (≈ 0.69 µM) with Clostridium difficile (Clostridioides difficile, C. difficile P59, Table 4, read-out: MIC); 0.5 µg/mL (≈ 0.345 µM) with Clostridium difficile (Clostridioides difficile, C. difficile P62, Table 4, read-out: MIC); 64 µg/mL (≈ 44.2 µM) in data set [4]; 1 µg/mL (≈ 0.69 µM) in the data set on S. aureus (S. aureus R33); 2 µg/mL (≈ 1.38 µM) with S. aureus (S. aureus SH1000); 2 µg/mL (≈ 1.38 µM) in the data set with S. epidermidis. The MIC in the data set with E. faecalis is 4 µg/mL (≈ 2.76 µM); in the data set with E. coli (ATCC25922, E. coli ATCC 25922, Table 5) it was over 64 µg/mL; with E. coli (E. coli DC2 (membrane more susceptible), Table 5, second line), over 64 µg/mL; in the data set with Bacteroides fragilis, 32 µg/mL (≈ 22.1 µM); in the data set with Bifidobacterium longum it was 1 to 2 µg/mL (≈ 0.69 to 1.38 µM); in the data set on M. luteus it was 2 µg/mL (≈ 1.38 µM). In the data set on E. coli (E. coli DC2 (membrane more susceptible), Table 5, first line), the “Minimal Inhibitory Concentration (MIC)” value was over 64 µg/mL. The “survival of infected animals” value in data set [5] is “survived for the duration of the entire 5-day dosing period”.
